# According to US20120190707A1, “SELECTIVE INHIBITORS OF AKT AND METHODS OF USING SAME” (priority 2008, published 2012):
# Where “and” joins values, the source holds several entries; their conditions need not be identical. Equal entries are not always repeated. Entries after “also recorded” stand apart in the source; their conditions may differ. Where two headings read alike, the source gives them in different places.
# Assays:
# Akt1 [1] = target: T1, Akt1 (Homo sapiens, UniProt P31749); experiment: Akt1 inhibition, Z'-LYTE kit fluorescent-enzymatic assay; type: biochemical; conditions: for Ki: 10 μM compound 1, 20 μM compound 2, 50 μM compound 3, increasing ATP, Lineweaver-Burk
# T1 sequence (P31749 whole entry): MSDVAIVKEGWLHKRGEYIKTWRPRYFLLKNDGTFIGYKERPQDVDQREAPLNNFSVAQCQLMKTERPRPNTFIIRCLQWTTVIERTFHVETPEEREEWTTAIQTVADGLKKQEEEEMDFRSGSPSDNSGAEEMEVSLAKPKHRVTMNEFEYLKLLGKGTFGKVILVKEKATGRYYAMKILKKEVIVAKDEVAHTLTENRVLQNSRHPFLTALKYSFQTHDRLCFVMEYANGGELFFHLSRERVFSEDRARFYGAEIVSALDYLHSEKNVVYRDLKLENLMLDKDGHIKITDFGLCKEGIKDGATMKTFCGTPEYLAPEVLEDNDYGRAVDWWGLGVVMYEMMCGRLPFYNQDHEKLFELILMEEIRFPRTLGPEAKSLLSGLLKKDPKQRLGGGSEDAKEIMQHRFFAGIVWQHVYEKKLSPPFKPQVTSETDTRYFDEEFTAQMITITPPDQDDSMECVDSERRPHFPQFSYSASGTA
# Description: Here the top 4000 compounds out of 50000 docked compounds were selected using FlexX and Drugscore (BioSolvIT). The top 4000 docked structures were further evaluated and ranked according to Goldscore and Chemscore functions (CSCORE). A list of common 200 compounds was then selected among ranked top 700 compounds according to both scoring functions (FIG. 1B). […] The remaining 100 compounds were experimentally tested up to 30 μM against Akt1. The inhibitory activity was evaluated for the selected compounds by using Z'-LYTE™ kit assay provided by Invitrogen Corporation (19). […] Corning® 384-well low volume plates (20 μl) were used. The fluorescent-enzymatic assay has been performed following the protocol provided by Invitrogen Corporation, using a fluorescent plate reader (Victor2, Perkin-Elmer). […] C) Lineweaver-Burk Km and Km(app) evaluation for Akt1. Each measurement was performed in triplicate. […] The Ki and the Km(app) were calculated at fixed inhibitor concentrations, as reported in the text. All constant values were definitely evaluated by fitting the data to the Lineweaver-Burk plot; D) Akt1 inhibition assay using GSK-3 as a substrate. Comparison of compounds 1 and 2 (Table 1) with H89 at 10 μM. E) Dose response for compound 1. Akt (10 ng of recombinant enzyme) in 25 μl 1× kinase buffer (25 mM Tris, pH 7.5; 5 mM n-glycerol phosphate; 2 mM dithiothreitol; 0.1 mM Na3VO4; and 10 mM MgCl2), was mixed with 2.5 μl DMSO (1% stock) or MPA-D (100 μM in 1% DMSO). Samples were incubated on ice for 1.5 hours at which time 1 μg of GSK-3 fusion protein (Cell Signaling), which served as the substrate, was added followed by ATP (200 μM) to each reaction mixture. After the suspensions were incubated at 30° C. for 20 min, the reaction was terminated by the addition of 3×SDS sample buffer (187.5 mM Tris-HCl, pH 6.8; 6% SDS; 30% glycerol; 150 mM dithiothreitol; and 0.03% bromophenol blue). The samples were boiled for 5 min, and the proteins were separated on a 12% SDS polyacrylamide gel and subsequently transferred to a nitrocellulose membrane. Membranes were incubated with rabbit polyclonal anti-phospho-GSK-3α/β (Ser21/9) (Cell Signaling).
# For these purposes, we initially determined the Km and the Vmax of the enzymatic reaction involving the peptide provided by the Z'-LYTE™ kit assay and Akt1 by varying the concentration of ATP. The above parameters appeared to be 7.9 μM and 0.0205 μmol min^−1 mg^−1, respectively. […] Because all our inhibitors affected the Km rather than the Vmax of the reaction (FIG. 2C), they can be truly considered ATP-competitive inhibitors of Akt1.
# Akt1 [2] = target: T1, Akt1; experiment: Akt1 inhibition assay using GSK-3 as a substrate (immuno-blotting with anti-phospho-GSK-3α/β); type: biochemical
# Description: Here the top 4000 compounds out of 50000 docked compounds were selected using FlexX and Drugscore (BioSolvIT). The top 4000 docked structures were further evaluated and ranked according to Goldscore and Chemscore functions (CSCORE). A list of common 200 compounds was then selected among ranked top 700 compounds according to both scoring functions (FIG. 1B). […] The remaining 100 compounds were experimentally tested up to 30 μM against Akt1. The inhibitory activity was evaluated for the selected compounds by using Z'-LYTE™ kit assay provided by Invitrogen Corporation (19). […] Corning® 384-well low volume plates (20 μl) were used. The fluorescent-enzymatic assay has been performed following the protocol provided by Invitrogen Corporation, using a fluorescent plate reader (Victor2, Perkin-Elmer). […] C) Lineweaver-Burk Km and Km(app) evaluation for Akt1. Each measurement was performed in triplicate. […] The Ki and the Km(app) were calculated at fixed inhibitor concentrations, as reported in the text. All constant values were definitely evaluated by fitting the data to the Lineweaver-Burk plot; D) Akt1 inhibition assay using GSK-3 as a substrate. Comparison of compounds 1 and 2 (Table 1) with H89 at 10 μM. E) Dose response for compound 1. […]
# [3] = FIG. 2 legend, read-out: IC50 value
# [4] = Table 2, derivatives of Compound 1, read-out: IC50
SMILES,IC50 values (in words) (Akt1 [1]),Ki (Akt1 [1]),IC50 (Akt1 [1]; [3]),"Hill slope (Akt1 [1]; IC50 curve, FIG. 2A)","IC50 (Akt1 [1]; Table 1, read-out: IC50)",IC50 (Akt1 [1]; [4]),inhibition of GSK-3 phosphorylation (Akt1 [2]),inhibitory activity against Akt1 kinase (in words) (Akt1 [1])
CC1=C(C#N)c2nc(N)c(C#N)c(C)c2/C1=C/c1ccc(-c2ccc(C(=O)O)c(Cl)c2)o1 [Compound 1],low-micromolar range,1100 nM,2300 nM and 2600 nM,1.1,2600 nM,2600 nM,low micromolar range,
O=C(O)c1cc(-c2ccc(C=C3C(=O)c4ccccc4C3=O)o2)ccc1O [Compound 3],,20800 nM,25100 nM,,,,,
CC1=C(C#N)c2nc(N)c(C#N)c(C)c2C1=Cc1ccc(-c2ccc(C(=O)O)cc2)o1 [Compound 4],,,,,,,,appreciable inhibition in the micromolar range; also recorded: limited inhibitory activity
CC1=C(C#N)c2nc(N)c(C#N)c(C)c2C1=Cc1ccc(-c2cccc(C(=O)O)c2)o1 [Compound 5],,,,,,60200 nM,,appreciable inhibition in the micromolar range; also recorded: limited inhibitory activity
